According to patent publication US20060030549A1, “Paricalcitol(zemplar) capsule controls secondary hyperparathyroidism (SHPT) in CKD stage 5 patients” (priority 2003, published 2006):

Tested on: CKD stage 5 subjects on hemodialysis (HD) or peritoneal dialysis (PD)
Assay: Double-blind, placebo-controlled, multicenter studies of paricalcitol capsule in secondary hyperparathyroidism
Type: in vivo, human
Conditions: for duration of iPTH/PTH reduction: HD and PD subjects, 12-week treatment; for AE (adverse event) profile: versus placebo group
Procedure: Paricalcitol capsule is an oral formulation of paricalcitol injection, a vitamin D analog effective in the prevention and treatment of SHPT associated with chronic renal failure. Three doubleblind, placebo-controlled, multicenter studies were conducted to evaluate the safety and efficacy of paricalcitol capsule in CKD stage 5 subjects on hemodialysis (HD) or peritoneal dialysis (PD). After a 4-8 week washout period, 225 subjects (HD: 150, PD: 75) with iPTH≧300 pg/mL, serum Ca 8.0-10.5 mg/dL and Ca×P04<65 were randomized (1:1) and treated with paricalcitol capsule or placebo 3× weekly for 12 weeks. Initial doses were based on iPTH levels at baseline (initial mcg dose=iPTH/60). Subsequent dose adjustments of 2 mcg were based on the weekly Ca, Ca×P04, and iPTH results; dose increases occurred every 2 weeks and decreases once per week.

- mean serum P04, maximum value (increased initially to the maximum, then decreased): 5.7 mg/dL
- mean Ca (throughout 12-week treatment): under 10.0 mg/dL
Compound: C[C@H](/C=C/[C@H](C)C(C)(C)O)[C@H]1CC[C@H]2/C(=C/C=C3C[C@@H](O)C[C@H](O)C3)CCC[C@]12C [paricalcitol]
- subjects with 2 consecutive 30 decreases in iPTH (95/105 subjects, capsule 3x weekly for 12 weeks, initial mcg dose = iPTH/60, p<0.001 vs placebo): 90%
- duration of iPTH/PTH reduction: sustained throughout the treatment
- duration of iPTH/PTH reduction (listed as paricalcitol capsule): sustained reduction of PTH
- mean iPTH reduction (by Week 3, 3x weekly dosing): 30%
- influence of subject factors on efficacy (demographics, disease severity, baseline P04, phosphate binder type): not influenced by demographics, disease severity, baseline P04 or types of phosphate binder usage
- AE (adverse event) profile: comparable between the groups
- AE (adverse event) profile (listed as paricalcitol capsule): comparable to placebo
